ChEMBL document CHEMBL1201862, “PubChem BioAssay data set” (2004)
Active and inactive are the calls of the source.

Legend:
[1] = growth suppression of PTEN-null colon cells, dose response, cell-based, HCT116 PTEN knockout (AID 1047); assay type: functional;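 note: HCT116 colon tumor cells with PTEN knocked out; cells exposed to compound for 60 hours before readout; potency for loss of cell viability measured by luminescence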
[2] = growth suppression of beta-catenin-knockout colon cells, dose response, cell-based, HCT116, human colon tumor (AID 1045); assay type: functional;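 note: HCT116 colon tumor cells with beta catenin knocked out; cells exposed to compound for 60 hours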
[3] = Luminescence Cell-Based Dose Retest to Confirm Inhibitors of Cancer Stem Cells. [Related pubchem assays (depositor defined):AID2717, AID2721]; assay type: functional; conditions: Homo sapiens
Caspase-3 = target: T1, Caspase-3 (Homo sapiens, UniProt P42574); assay type: functional;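 note: Dose-response selectivity test against caspase-3 for candidate inhibitors of sentrin-specific proteases (SENPs)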
T1 sequence (P42574 whole entry): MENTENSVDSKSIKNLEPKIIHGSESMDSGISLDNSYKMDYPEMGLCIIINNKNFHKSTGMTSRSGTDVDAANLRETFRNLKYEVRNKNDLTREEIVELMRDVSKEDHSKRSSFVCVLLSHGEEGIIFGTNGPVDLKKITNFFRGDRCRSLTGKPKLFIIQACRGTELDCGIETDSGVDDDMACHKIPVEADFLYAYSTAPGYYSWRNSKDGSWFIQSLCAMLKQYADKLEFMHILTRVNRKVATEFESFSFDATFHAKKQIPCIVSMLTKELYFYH

[4] = target: T2, Sentrin-specific protease 7 (Homo sapiens, UniProt Q9BQF6); assay type: functional;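 note: Luminescence-based dose-response confirmation of ultra-high-throughput screening hits, measuring inhibition of SENP7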
T2 sequence (Q9BQF6 whole entry): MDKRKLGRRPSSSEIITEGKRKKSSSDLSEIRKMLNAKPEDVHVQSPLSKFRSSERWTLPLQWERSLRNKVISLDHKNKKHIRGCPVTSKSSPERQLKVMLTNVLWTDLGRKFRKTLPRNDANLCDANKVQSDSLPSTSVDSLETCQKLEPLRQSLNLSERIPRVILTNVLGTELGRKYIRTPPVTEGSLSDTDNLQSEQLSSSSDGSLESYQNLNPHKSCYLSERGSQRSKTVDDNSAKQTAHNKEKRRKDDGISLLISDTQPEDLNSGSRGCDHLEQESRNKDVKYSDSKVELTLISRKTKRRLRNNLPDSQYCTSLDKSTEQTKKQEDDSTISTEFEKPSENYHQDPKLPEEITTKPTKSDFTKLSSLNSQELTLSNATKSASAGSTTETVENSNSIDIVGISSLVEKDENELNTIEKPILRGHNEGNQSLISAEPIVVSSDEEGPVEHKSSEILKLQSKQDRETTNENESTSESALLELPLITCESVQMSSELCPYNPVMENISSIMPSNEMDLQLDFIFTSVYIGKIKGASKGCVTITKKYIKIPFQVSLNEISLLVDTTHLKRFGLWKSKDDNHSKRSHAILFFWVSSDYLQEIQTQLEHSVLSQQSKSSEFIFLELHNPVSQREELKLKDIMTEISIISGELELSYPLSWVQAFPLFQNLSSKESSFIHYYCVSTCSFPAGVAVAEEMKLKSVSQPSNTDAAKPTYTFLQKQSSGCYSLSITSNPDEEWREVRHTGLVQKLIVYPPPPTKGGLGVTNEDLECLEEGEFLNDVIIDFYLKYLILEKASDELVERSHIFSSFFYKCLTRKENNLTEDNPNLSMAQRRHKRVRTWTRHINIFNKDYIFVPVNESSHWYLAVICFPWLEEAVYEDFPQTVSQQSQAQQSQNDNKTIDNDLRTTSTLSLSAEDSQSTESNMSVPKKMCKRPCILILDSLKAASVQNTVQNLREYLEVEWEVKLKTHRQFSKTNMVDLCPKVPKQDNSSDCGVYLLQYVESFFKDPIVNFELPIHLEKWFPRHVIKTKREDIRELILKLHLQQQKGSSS

[5] = target: T3, Sentrin-specific protease 6 (Homo sapiens, UniProt Q9GZR1); assay type: functional;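 note: Luminescence-based dose-response confirmatory assay of SENP6 inhibition, following up an ultra-high-throughput screen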
T3 sequence (Q9GZR1 whole entry): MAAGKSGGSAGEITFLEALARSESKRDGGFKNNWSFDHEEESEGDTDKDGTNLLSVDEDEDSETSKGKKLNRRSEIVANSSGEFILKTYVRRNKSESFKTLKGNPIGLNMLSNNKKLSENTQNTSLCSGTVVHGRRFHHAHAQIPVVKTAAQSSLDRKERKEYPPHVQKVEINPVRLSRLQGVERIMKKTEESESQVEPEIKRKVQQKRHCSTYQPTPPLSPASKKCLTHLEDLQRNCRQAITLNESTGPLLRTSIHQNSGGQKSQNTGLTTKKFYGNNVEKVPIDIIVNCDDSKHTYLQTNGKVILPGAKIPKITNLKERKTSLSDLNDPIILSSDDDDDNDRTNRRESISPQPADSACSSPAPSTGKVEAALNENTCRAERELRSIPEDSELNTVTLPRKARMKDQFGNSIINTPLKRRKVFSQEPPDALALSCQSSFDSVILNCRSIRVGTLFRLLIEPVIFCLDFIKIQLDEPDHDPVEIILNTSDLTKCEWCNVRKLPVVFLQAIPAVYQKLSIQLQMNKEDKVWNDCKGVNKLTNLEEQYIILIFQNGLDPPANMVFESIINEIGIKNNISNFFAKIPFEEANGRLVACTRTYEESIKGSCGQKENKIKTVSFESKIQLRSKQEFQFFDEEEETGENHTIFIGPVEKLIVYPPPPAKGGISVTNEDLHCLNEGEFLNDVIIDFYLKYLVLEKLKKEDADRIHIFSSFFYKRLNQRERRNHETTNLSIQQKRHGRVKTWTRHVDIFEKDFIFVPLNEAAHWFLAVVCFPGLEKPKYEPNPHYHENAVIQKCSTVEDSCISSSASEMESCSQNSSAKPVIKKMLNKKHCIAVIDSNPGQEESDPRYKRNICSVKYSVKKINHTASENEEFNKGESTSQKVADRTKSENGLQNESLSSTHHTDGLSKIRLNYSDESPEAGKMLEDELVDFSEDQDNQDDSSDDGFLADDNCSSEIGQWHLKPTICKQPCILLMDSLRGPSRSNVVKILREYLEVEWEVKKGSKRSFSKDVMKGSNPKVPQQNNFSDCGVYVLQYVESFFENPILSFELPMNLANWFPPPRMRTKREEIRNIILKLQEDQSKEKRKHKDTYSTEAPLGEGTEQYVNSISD

[6] = target: T4, Sentrin-specific protease 8 (Homo sapiens, UniProt Q96LD8); assay type: functional;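 note: luminescence read-out of SENP8 inhibition, dose-response confirmation following an ultra-high-throughput screen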
T4 sequence (Q96LD8 whole entry): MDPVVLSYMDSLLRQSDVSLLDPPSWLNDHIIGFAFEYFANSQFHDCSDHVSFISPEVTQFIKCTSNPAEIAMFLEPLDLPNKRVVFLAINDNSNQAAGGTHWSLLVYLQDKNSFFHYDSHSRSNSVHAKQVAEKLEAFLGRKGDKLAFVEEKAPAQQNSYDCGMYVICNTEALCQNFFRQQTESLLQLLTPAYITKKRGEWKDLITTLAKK

[7] = target: T5, Corticotropin-releasing factor receptor 2/Corticotropin-releasing factor-binding protein (Homo sapiens, UniProt P24387+Q13324); assay: Dose Response confirmation of uHTS hits for small molecule antagonists of the CRF-binding protein and CRF-R2 receptor complex.; assay type: functional; conditions: read-out: IC50_Mean
T5 sequence (Q13324 whole entry): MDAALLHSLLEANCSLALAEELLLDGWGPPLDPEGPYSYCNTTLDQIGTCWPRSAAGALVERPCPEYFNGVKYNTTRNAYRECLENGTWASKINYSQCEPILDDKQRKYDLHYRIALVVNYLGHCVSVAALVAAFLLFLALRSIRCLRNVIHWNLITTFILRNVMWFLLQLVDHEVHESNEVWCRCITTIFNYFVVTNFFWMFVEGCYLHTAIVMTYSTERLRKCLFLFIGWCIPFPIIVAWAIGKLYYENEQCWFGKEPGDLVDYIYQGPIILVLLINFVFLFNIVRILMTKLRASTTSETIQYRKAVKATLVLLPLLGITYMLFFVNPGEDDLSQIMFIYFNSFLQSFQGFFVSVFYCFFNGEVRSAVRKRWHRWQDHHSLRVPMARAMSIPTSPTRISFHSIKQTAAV
T5 sequence (P24387 whole entry): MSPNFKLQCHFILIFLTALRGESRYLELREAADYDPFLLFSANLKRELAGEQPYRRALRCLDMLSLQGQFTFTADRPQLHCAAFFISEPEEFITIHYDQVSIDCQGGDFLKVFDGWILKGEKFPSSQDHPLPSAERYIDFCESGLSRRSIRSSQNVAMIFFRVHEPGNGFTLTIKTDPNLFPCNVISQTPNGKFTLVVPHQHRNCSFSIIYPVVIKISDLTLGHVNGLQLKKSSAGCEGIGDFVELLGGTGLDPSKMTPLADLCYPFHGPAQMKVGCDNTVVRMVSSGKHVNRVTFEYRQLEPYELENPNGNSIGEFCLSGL

[8] = target: T5, Corticotropin-releasing factor receptor 2/Corticotropin-releasing factor-binding protein; assay: activators of CRF receptor 2 with binding protein – uHTS hits, confirmation (AID 602473); assay type: functional; conditions: read-out: EC50_Mean
[9] = CRF-BP/CRF-R2 complex antagonists, dose response, cell-based, uHTS hits, 384-well (AID 651639); assay type: functional, Homo sapiens; conditions: read-out: IC50_Mean
[10] = A Cell Based Secondary Assay To Explore Cytotoxicity of Compounds that Sensitize Mycobacterium Tuberculosis to Beta-Lactam Antibiotics.; assay type: functional
Protein skinhead-1 = target: T6, Protein skinhead-1 (Caenorhabditis elegans, UniProt P34707); assay type: functional
T6 sequence (P34707 whole entry): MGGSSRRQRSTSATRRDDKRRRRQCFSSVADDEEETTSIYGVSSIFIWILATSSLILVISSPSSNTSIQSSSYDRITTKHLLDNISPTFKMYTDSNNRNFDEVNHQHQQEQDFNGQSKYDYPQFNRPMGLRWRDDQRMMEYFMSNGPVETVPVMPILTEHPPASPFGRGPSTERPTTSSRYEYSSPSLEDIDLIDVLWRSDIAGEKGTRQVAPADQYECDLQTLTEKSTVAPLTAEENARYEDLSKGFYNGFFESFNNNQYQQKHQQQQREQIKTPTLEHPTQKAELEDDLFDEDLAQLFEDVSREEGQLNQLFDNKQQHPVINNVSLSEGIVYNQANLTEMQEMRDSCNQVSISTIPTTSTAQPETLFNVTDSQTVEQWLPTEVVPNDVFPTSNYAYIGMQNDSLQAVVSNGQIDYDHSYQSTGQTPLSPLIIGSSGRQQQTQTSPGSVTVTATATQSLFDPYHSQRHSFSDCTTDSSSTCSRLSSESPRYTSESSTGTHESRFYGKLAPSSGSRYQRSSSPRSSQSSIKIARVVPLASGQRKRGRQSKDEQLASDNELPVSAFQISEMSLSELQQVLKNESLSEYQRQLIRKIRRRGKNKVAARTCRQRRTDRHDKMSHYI

[11] = NIH-3T3 fibroblast cytotoxicity, dose response, cytotoxicity control, cell-based, fluorescence, Alamar Blue, secondary assay (AID 2327); assay type: functional;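 note: NIH-3T3 mouse fibroblasts cultured with fluconazole at 8 µg/mL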
[12] = inhibitors of firefly luciferase expression or activity, dose response, H4 neuroglioma cells, luminescence (AID 1990); assay type: functional, cell-based
[13] = Luminescence Cell-Based Dose Response HTS to Identify Inhibitors of 5'UTR Stem-Loop Driven Prion Protein mRNA Translation in H4 Neuroglioblastoma Cells. [Related pubchem assays: 1827 (Project Summary), 1813 (Primary HTS)]; assay type: functional
[14] = inhibitors of SNCA 5'UTR-driven reporter translation, confirmation, H4 neuroglioma cells, luminescence (AID 1988); assay type: functional, cell-based
[15] = C. albicans growth with fluconazole, confirmation, fluorescence, retest (AID 2467); assay type: functional, cell-based
[16] = inhibitors of intracellular T. cruzi replication, confirmation, NIH3T3 host cells, beta-gal luminescence (AID 2044); assay type: functional, cell-based;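 note: intracellular parasites grown in NIH/3T3 mouse fibroblasts as host cells; luminescent beta-galactosidase reporter signal from transgenic T. cruzi replicating inside host cells; inhibitors lower the luminescence signal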
[17] = cytotoxicity toward NIH3T3 fibroblasts, dose response, counter-screen, cell-based, ATP luminescence, mouse fibroblasts (AID 2010); assay type: functional;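 note: cells exposed to compound for about 90 hours before reading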
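Throughout, for AC50: cells exposed to compound for roughly 70 hours or longer before luminescence read.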

## CCN1CCN(c2cc(-c3ccccc3)nc3cc(-c4cccc(F)c4)nn23)CC1
[1]
  EC50: 13.8 µM (active)
[2]
  EC50: 11.1 µM (active)
[3]
  AC50: 5.42 µM (active)

## CCOC(=O)/C=C/c1ccc2oc3ccccc3c(=O)c2c1
Caspase-3
  IC50: 12.2 µM (active)
[4]
  IC50: 3.46 µM (active)
[5]
  IC50: 16.6 µM (active)
[6]
  IC50: 42.7 µM (active)

## Nc1ccccc1Oc1c(F)c(F)c(Oc2ccccc2N)c(F)c1F
[7]
  IC50: 4.08 µM (active)
[8]
  EC50: > 53 µM (inactive)
[9]
  IC50: > 20 µM (inactive)

## O=C(Nc1cccc(S(=O)(=O)N2CCCCC2)c1)Nc1ccc(Cl)cc1Cl
[1]
  EC50: 8.66 µM (active)
[2]
  EC50: 8.76 µM (active)

## COc1ccc([N+](=O)[O-])cc1NC(=O)c1ccccc1SC
[7]
  IC50: 23 µM (active)
[8]
  EC50: > 53 µM (inactive)
[9]
  IC50: 1.79 µM (active)

## O=C(CSc1ncnc2ccccc12)c1cccs1
Caspase-3
  IC50: 37.4 µM (active)
[4]
  IC50: 4.7 µM (active)
[5]
  IC50: 23.9 µM (active)
[6]
  IC50: 17.5 µM (active)

## Cc1ccc(-c2nc3sc4c(c3c(=O)n2N)CCCC4)cc1
Caspase-3
  IC50: 12.7 µM (active)
[4]
  IC50: 5.25 µM (active)
[5]
  IC50: 18.2 µM (active)
[6]
  IC50: > 100 µM (inactive)

## CN(C)C1=NP(N(C)C)(N(C)C)=NC(c2ccccc2)=N1
[7]
  IC50: < 0.368 µM (active)
[8]
  EC50: > 53 µM (inactive)
[9]
  IC50: > 20 µM (inactive)

## COC(=O)CNC(c1ccccc1Cl)c1cc(Br)ccc1NC(=O)CCN1CCOCC1 (stereo not drawn)
[10]
  CC50: > 40 µM (active)
Protein skinhead-1
  IC50: > 100 µM (inactive)

## COc1cc(NC(=O)c2cccc(Br)c2)nc(OC)n1
Caspase-3
  IC50: 20.5 µM (active)
[4]
  IC50: 8.86 µM (active)
[5]
  IC50: 31 µM (active)
[6]
  IC50: 35.7 µM (active)

## N#Cc1cccc(NC(=O)Nc2cccs2)c1
[7]
  IC50: < 0.368 µM (active)
[8]
  EC50: > 53 µM (inactive)
[9]
  IC50: > 20 µM (inactive)

## Cc1cccc(C(=O)O/N=C/c2c(N3CCOCC3)n(C)c3ccccc23)c1
[11]
  EC50: > 150 µM (inactive)
[12]
  EC50: > 120 µM (not active)
[13]
  EC50: 10.8 µM (active)
[14]
  EC50: 9.98 µM (active)
[15]
  EC50: 0.729 µM (active)
[16]
  EC50: 3.22 µM (active)
[1]
  EC50: 2.47 µM (active)
[17]
  EC50: 8.96 µM (active)
[2]
  EC50: 2.35 µM (active)

## COCCn1c(=O)[nH]c(=O)c2c1nc(-c1ccc(-c3ccc(Cl)cc3[N+](=O)[O-])o1)n2Cc1ccccc1
[1]
  EC50: 17.3 µM (active)
[2]
  EC50: 19.4 µM (active)

## COc1ccc2oc(=N)c(C(=O)Nc3ccccc3)cc2c1
[10]
  CC50: > 40 µM (active)

## CCCOc1ccc(C(=O)CCN2CCCCC2)cc1
[10]
  CC50: > 40 µM (active)
